According to patent US5534416A, “Fluorescent viability assay using cyclic-substituted unsymmetrical cyanine dyes” (Molecular Probes, Inc., priority 1993, dated 1996):

Legend:
DNA = assay: Quantum yield of dye on DNA versus fluorescein; type: physicochemical; settings: Table 2; Tris buffered saline pH 10; fluorescein assumed 0.92
Text: ^ Quantum yield (QY) of dye on DNA (standard solution in Tris buffere
saline adjusted to pH 10) in comparison with fluorescein, which is assume
to have a quantum yield of 0.92 under the test conditions.
Factors such as degree of fluorescence enhancement with nucleic acid binding, self quenching, molar extinction coefficient, membrane permeability, intracellular partitioning, nucleic acid binding affinity, and quantum yield contribute to the overall fluorescence of nucleic acid stains in cells. Enhanced cell fluorescence obtained with Dye I is related to unexpected properties other than quantum yield alone. Quantum yield is determined as described above (foot note to Table 2). Normalized quantum yield is determined to illustrate the fold-change in quantum yield of Dye I compared with thiazole orange, a related cell-permeant dye. The normalized fluorescence values represent the quantum yield of each dye divided by the quantum yield of thiazole orange. Fluorescence per cell is also scaled to thiazole orange values for both E. coli and S. aureus to allow direct comparison between relative (normalized) quantum yield and relative (normalized) fluorescence/cell.

nucleic acids = assay: Excitation/emission maxima of dyes complexed with nucleic acids; type: physicochemical; design: key: wavelength in nm; settings: Table 2; dye complexed with nucleic acids
Text: Dye I is lightly colored and is virtually non-fluorescent when diluted in aqueous solution according to the method of the invention. Dye I is highly membrane-permeant and labels all cells, whether live or dead. When Dye I binds with intracellular nucleic acid polymers such as DNA and RNA, the resultant dye-nucleic acid complex becomes extremely fluorescent upon illumination. The quantum yield of the preferred Dye I/DNA complex is greater than 0.02, typically greater than 0.1, preferably greater than 0.2, and more preferably greater than 0.3. Typically, Dye I combines with intracellular nucleic acids to give a green or red fluorescence. When excited at a wavelength between about 300 nm and about 500 nm, the dyes complexed with nucleic acids have an emission maximum between about 500 and about 610 nm (see Table 2). Preferably, Dye I complexed with nucleic acids has an emission maximum of between about 500 nm and about 535 nm, resulting in a true green fluorescent signal in cells of the sample where Dye I is present alone.

calf thymus DNA = settings: Table 5; bound to excess calf thymus DNA (50 bp/dye); cited from earlier work

Structure (SMILES) | QY (DNA) (DNA) | EM max (nucleic acids) | EX max (nucleic acids) | EM max (calf thymus DNA) [nm] | EX max (calf thymus DNA) [nm]
C[n+]1c(C=C2C=C(Cl)N(C3CCCCC3)c3ccccc32)sc2ccccc21 [780 (Cl)] | 0.09 | 536 | 513 |  | 
CSC1=CC(=Cc2sc3ccccc3[n+]2C)c2ccccc2N1C1CCCCC1 [780 (S)] | 0.31 |  |  |  | 
C[n+]1c(C=C2C=CN(CCC[N+](C)(C)C)C=C2)sc2ccccc21 [BO-PRO-1] |  |  |  | 481 | 462
C[n+]1c(C=CC=C2C=CN(CCC[N+](C)(C)C)C=C2)sc2ccccc21 [BO-PRO-3] |  |  |  | 599 | 575
C[n+]1c(C=C2C=CN(CCC[N+](C)(C)CCC[N+](C)(C)CCCN3C=CC(=Cc4sc5ccccc5[n+]4C)C=C3)C=C2)sc2ccccc21 [BOBO-1] |  |  |  | 481 | 462
C[n+]1c(C=CC=C2C=CN(CCC[N+](C)(C)CCC[N+](C)(C)CCCN3C=CC(=CC=Cc4sc5ccccc5[n+]4C)C=C3)C=C2)sc2ccccc21 [BOBO-3] |  |  |  | 602 | 570
CC[n+]1c(-c2ccccc2)c2cc(N)ccc2c2ccc(N)cc21 [Ethidium bromide] |  |  |  | 595 | 510
CC[n+]1c(-c2ccccc2)c2cc(N=[N+]=[N-])ccc2c2ccc(N)cc21 [Ethidium monoazide] |  |  |  | 615 | 465
C[n+]1c(C=C2C=CN(CCC[N+](C)(C)C)C=C2)oc2ccccc21 [PO-PRO-1] |  |  |  | 455 | 435
C[n+]1c(C=CC=C2C=CN(CCC[N+](C)(C)C)C=C2)oc2ccccc21 [PO-PRO-3] |  |  |  | 567 | 539
C[n+]1c(C=C2C=CN(CCC[N+](C)(C)CCC[N+](C)(C)CCCN3C=CC(=Cc4oc5ccccc5[n+]4C)C=C3)C=C2)oc2ccccc21 [POPO-1] |  |  |  | 456 | 434
C[n+]1c(C=CC=C2C=CN(CCC[N+](C)(C)CCC[N+](C)(C)CCCN3C=CC(=CC=Cc4oc5ccccc5[n+]4C)C=C3)C=C2)oc2ccccc21 [POPO-3] |  |  |  | 570 | 534
CC[N+](C)(CC)CCC[n+]1c(-c2ccccc2)c2cc(N)ccc2c2ccc(N)cc21 [Propidium iodide] |  |  |  | 617 | 536
C[n+]1c(C=C2C=CN(CCC[N+](C)(C)C)c3ccccc32)sc2ccccc21 [TO-PRO-1] |  |  |  | 531 | 515
C[n+]1c(C=CC=C2C=CN(CCC[N+](C)(C)C)c3ccccc32)sc2ccccc21 [TO-PRO-3] |  |  |  | 661 | 642
C[n+]1c(C=C2C=CN(CCC[N+](C)(C)CCC[N+](C)(C)CCCN3C=CC(=Cc4sc5ccccc5[n+]4C)c4ccccc43)c3ccccc32)sc2ccccc21 [TOTO-1] |  |  |  | 533 | 514
C[n+]1c(C=CC=C2C=CN(CCC[N+](C)(C)CCC[N+](C)(C)CCCN3C=CC(=CC=Cc4sc5ccccc5[n+]4C)c4ccccc43)c3ccccc32)sc2ccccc21 [TOTO-3] |  |  |  | 660 | 642
C[n+]1c(C=C2C=CN(CCC[N+](C)(C)C)c3ccccc32)oc2ccccc21 [YO-PRO-1] |  |  |  | 509 | 491
C[n+]1c(C=CC=C2C=CN(CCC[N+](C)(C)C)c3ccccc32)oc2ccccc21 [YO-PRO-3] |  |  |  | 631 | 612
C[n+]1c(C=C2C=Cc3ccccc3N2c2ccccc2)sc2ccccc21 [compound 64] |  | 523 | 450 |  | 
CCCCc1cc(C=C2Sc3ccccc3N2C)c2ccccc2[n+]1-c1cccs1 [compound 71] | 0.31 | 526 | 508 |  | 
CN1C=CC(=Cc2sc3ccccc3[n+]2C)c2cccc(-c3ccccc3)c21 [compound 72] | 0.026 | 535 | 515 |  | 
CN1C(=Cc2cc[n+](C3CCCCC3)c3ccccc23)Sc2ccccc21 [compound 73] | 0.31 | 525 | 508 |  | 
CCN1C(=Cc2cc(Cl)[n+](-c3ccccc3)c3ccccc23)Sc2ccccc21 [compound 200] |  | 759 | 739 |  | 
CN1C(=Cc2cc[n+](C3CCCCC3)c3ccccc23)Sc2ccccc21 [compound 542] |  | 527 | 510 |  | 
C[n+]1c(C=C2C=CN(c3ccccc3)C(Cl)=C2)sc2ccccc21 [compound 578] |  | 504 | 470 |  | 

Structure (SMILES) | QY (DNA) (DNA) | EM max (nucleic acids) | EX max (nucleic acids) | EM max (calf thymus DNA) [nm] | EX max (calf thymus DNA) [nm]
COc1ccc(N2C(Cl)=CC(=Cc3sc4ccccc4[n+]3C)c3ccccc32)cc1 [compound 582] |  | 533 | 516 |  | 
COc1ccccc1N1C=CC(=Cc2sc3ccccc3[n+]2C)C=C1Cl [compound 616] |  | 510 | 471 |  | 
CCCCC1=CC(=CC=Cc2sc3ccccc3[n+]2C)c2ccccc2N1c1ccccc1 [compound 621] |  | 656 | 635 |  | 
C[n+]1c(C=C2C=C(c3ccccc3)N(c3ccccc3)c3ccccc32)sc2ccccc21 [compound 630] | 0.19 | 544 | 517 |  | 
C[n+]1c(C=C2C=C(Cl)N(c3ccccc3)c3ccccc32)oc2ccccc21 [compound 633] | 0.12 | 508 | 489 |  | 
CN1C(c2ccccc2)=CC(=Cc2sc3ccccc3[n+]2C)c2ccccc21 [compound 639] | 0.20 | 548 | 513 |  | 
C[n+]1c(C=C2C=CN(c3ccccc3)C=C2)sc2ccccc21 [compound 640] |  | 516 | 471 |  | 
CSC1=CC(=Cc2sc3ccccc3[n+]2C)c2ccccc2N1c1ccccc1 [compound 641] | 0.35 | 526 | 503 |  | 
COC1=CC(=CC=Cc2oc3ccccc3[n+]2C)c2ccccc2N1c1ccccc1 [compound 672] |  | 611 | 586 |  | 
CCOC1=CC(=Cc2sc3ccccc3[n+]2C)c2ccccc2N1c1ccccc1 [compound 720] | 0.52 | 507 | 487 |  | 
CCCCC1=CC(=CC=Cc2sc3ccccc3[n+]2C)C=CN1c1ccccc1 [compound 742] |  | 611 | 570 |  | 
CN1C(=Cc2cc(N3CCOCC3)[n+](C)c3ccccc23)Sc2ccccc21 [compound 752] | 0.51 | 518 | 494 |  | 
CCN(CC)C1=CC(=Cc2sc3ccccc3[n+]2C)c2ccc(OC)cc2N1c1ccccc1 [compound 760] | 0.68 | 510 | 485 |  | 
CC(C)OC1=CC(=Cc2sc3ccccc3[n+]2C)c2ccccc2N1c1ccccc1 [compound 764] | 0.58 | 508 | 486 |  | 
C[n+]1c(C=C2C=C(C3CCCCC3)N(c3ccccc3)c3ccccc32)sc2ccccc21 [compound 765] | 0.50 | 524 | 506 |  | 
C[n+]1c(C=C2C=C(Br)N(c3ccccc3)c3ccccc32)sc2ccccc21 [compound 774] |  | 533 | 517 |  | 
CCCN(CCC)C1=CC(=Cc2sc3ccccc3[n+]2C)c2ccccc2N1c1ccccc1 [compound 776] | 0.65 |  |  |  | 
CN1C(=Cc2cc(Cl)[n+](-c3cccs3)c3ccccc23)Sc2ccccc21 [compound 830] |  | 533 | 517 |  | 
C[n+]1c(C=C2C=C(F)N(c3ccccc3)c3ccccc32)sc2ccccc21 [compound 834] |  | 507 | 486 |  | 
C[n+]1c(C=C2C=C(Oc3ccccc3)N(c3ccccc3)c3ccccc32)sc2ccccc21 [compound 835] |  | 518 | 495 |  | 
C[n+]1c(C=C2C=C(Sc3ccccn3)N(c3ccccc3)c3ccccc32)sc2ccccc21 [compound 853] |  | 555 | 516 |  | 
C[n+]1c(C=C2C=C(OS(=O)(=O)C(F)(F)F)N(c3ccccc3)c3ccccc32)sc2ccccc21 [compound 854] |  | 520 | 483 |  | 
CN1CCN(C2=CC(=Cc3sc4ccccc4[n+]3C)c3ccccc3N2c2ccccc2)CC1 [compound 856] | 0.43 | 523 | 502 |  | 
COc1ccc2c(c1)N(c1ccccc1)C(Cl)=CC2=Cc1sc2ccccc2[n+]1C [compound 5103] | 0.18 | 530 | 511 |  | 
CN1C(C2CCCCC2)=CC(=Cc2sc3ccccc3[n+]2C)c2ccccc21 [compound 6104] | 0.52 | 523 | 505 |  | 
